Where two headings read alike, the source gives them in different places. Marks after values point to notes of the source that are not given here. Starred links: 1 amine or outer side, 2 acyl side, 3 side chain; linkers in the order of their positions; H or OH if unused. Non-standard residues stand in square brackets, D forms with d. Residues, ends and D or L forms follow the SMILES beside them. Groups on a side chain read outwards from the residue. *: point of attachment. C18 diacid = O=C(O)CCCCCCCCCCCCCCCCC(=O)*; γGlu = O=C(O)[C@H](CCC(=O)[*:2])N[*:1]; εLys = N[C@@H](CCCCN[*:1])C(=O)[*:2]; AEEA = NCCOCCOCC(=O)O; Aib = CC(C)(N)C(=O)O
Assays:
[1] = Pharmacokinetic study in dogs after oral dosing of tablets with SNAC; type: in vivo, Beagle dogs; settings: dog, in vivo, po; for Tmax / half-life: male, Beagle
Description: The purpose of this example is to determine the half-life and plasma exposure in vivo of the compounds of the present invention after p.o. administration to beagle dogs, i.e. the terminal half-life and concentration of test substance that reaches circulation with time. This is done in a pharmacokinetic (PK) study, where these parameters of the compound in question are determined. By terminal half-life is generally meant the period of time it takes to halve a certain plasma concentration, measured after the initial distribution phase.
The amount of SNAC in the tablet composition was 100-300 mg, the amount of magnesium stearate in the tablet composition was 7.7 mg, and the target amount of each test substance in the tablet composition was 3-4 mg.
Male beagle dogs, 1-7 years of age and weighing 9-17 kg during the study period, were included in the study. The dogs were dosed in a fasting state. The dogs were group housed in pens (12 hours light: 12 hours dark), and fed individually and restrictedly once daily with Royal Canin Medium Adult dog food (Royal Canin Products, China Branch, or Brogaarden A/S, Denmark). The dogs were used for repeated PK studies with a suitable wash-out period between successive dosing. An appropriate acclimatization period was given prior to initiation of the first PK study. All handling, dosing, and blood sampling of the animals were performed by trained and skilled staff. Before the studies, the dogs were fasted overnight and from 0 to 4 hours after dosing. The dogs were restricted to water 1 hour before dosing until 4 hours after dosing, but otherwise had ad libitum access to water during the whole period.
The compositions were administered by a single oral dosing to the dogs in groups of 6-8 dogs. […] The mouth was then closed, and 10 mL of tap water was given by syringe or gavage to facilitate swallowing of the tablet.
One blood sample was drawn before dosing, and additional samples were drawn at predefined time points after dosing for up to 240 hours, such as up to 10 hours, to adequately cover the full plasma concentration-time absorption profile of the test substance. For each blood sample time point, approximately 0.8 mL of whole blood was collected in a 1.5 mL EDTA-coated tube, which was gently turned to mix the sample with EDTA. Blood samples were collected in EDTA buffer (8 mM) and then centrifuged at 4° C. 2000 g for 10 minutes. Plasma was pipetted into Micronic tubes on dry ice, and kept at −20° C. or lower until analysis. Blood samples were taken as appropriate, for example from a venflon in the cephalic vein in the front leg for the first 2 hours and then with syringe from the jugular vein for the rest of the time points. The first few drops were allowed to drain from the venflon to avoid heparin saline from the venflon in the sample.
All blood samples were collected into test tubes containing EDTA for stabilisation and kept on ice until centrifugation. Plasma was separated from whole blood by centrifugation and the plasma was stored at −20° C. or lower until analysis.
The plasma was analysed for test substance using LC-MS (Liquid Chromatography-Mass Spectrometry) as known to the person skilled in the art. […] RP-HPLC separation was achieved using a linear gradient of 1:1 acetonitrile/methanol in 1% aqueous formic acid using either: a Phenomenex Onyx Monolithic C18 column (50×2.0 mm) and a flow rate of 0.8 mL/min at 30° C.; or an Agilent Poroshell 120 SB-C18 column (50×2.1 mm, 2.7 μm) at a flow rate of 0.4 mL/min at 60° C. The mass spectrometer was operated in either positive ionization SIM mode or positive ionization PRM mode.
For each individual animal, a plasma concentration-time profile was analysed by a non-compartmental model in Pharsight Phoenix WinNonLin ver.

[2] = biological target: human GLP-1 receptor (Homo sapiens, UniProt P43220); assay: In vitro functional potency, CRE luciferase reporter, whole BHK cells (hGLP-1R); type: cell-based; set-up: expressed in transfected cells; host or cells: BHK (parent line BHKTS13), clone BHK CRE luc2P hGLP-1R; settings: BHK CRE luc2P hGLP-1R cells
Chain of human GLP-1 receptor (P43220 24-463): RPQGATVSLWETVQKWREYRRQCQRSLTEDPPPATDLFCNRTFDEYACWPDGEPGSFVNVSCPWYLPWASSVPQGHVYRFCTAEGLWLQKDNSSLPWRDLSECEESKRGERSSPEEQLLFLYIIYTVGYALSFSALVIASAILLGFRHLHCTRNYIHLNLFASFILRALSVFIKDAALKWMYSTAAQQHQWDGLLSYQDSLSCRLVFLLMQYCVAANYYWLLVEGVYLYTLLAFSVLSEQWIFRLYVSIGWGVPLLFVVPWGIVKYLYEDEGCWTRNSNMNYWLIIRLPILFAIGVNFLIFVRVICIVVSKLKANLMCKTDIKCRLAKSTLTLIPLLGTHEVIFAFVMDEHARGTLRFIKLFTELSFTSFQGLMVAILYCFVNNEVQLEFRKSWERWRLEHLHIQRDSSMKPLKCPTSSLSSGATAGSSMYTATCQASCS
Procedure, shortened: (§1)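 BHK CRE luc2P cells stably expressing hGIPR or hGLP-1R were seeded at 5000 cells/well overnight. They were treated 3 h at 37° C with a 12-point, 3.5-fold compound series in buffer with or without HSA, and luciferase luminescence was read. Values come from log(agonist)-response regression, averaging at least two replicates.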

[3] = biological target: T1, human GIP receptor (Homo sapiens, UniProt P48546); assay: In vitro functional potency, CRE luciferase reporter, whole BHK cells (hGIPR); type: cell-based; settings: BHK CRE luc2P hGIPR cells
T1 construct: expressed in transfected cells; host or cells: BHK (parent line BHKTS13), clone BHK CRE luc2P hGIPR
T1 sequence (P48546 22-466): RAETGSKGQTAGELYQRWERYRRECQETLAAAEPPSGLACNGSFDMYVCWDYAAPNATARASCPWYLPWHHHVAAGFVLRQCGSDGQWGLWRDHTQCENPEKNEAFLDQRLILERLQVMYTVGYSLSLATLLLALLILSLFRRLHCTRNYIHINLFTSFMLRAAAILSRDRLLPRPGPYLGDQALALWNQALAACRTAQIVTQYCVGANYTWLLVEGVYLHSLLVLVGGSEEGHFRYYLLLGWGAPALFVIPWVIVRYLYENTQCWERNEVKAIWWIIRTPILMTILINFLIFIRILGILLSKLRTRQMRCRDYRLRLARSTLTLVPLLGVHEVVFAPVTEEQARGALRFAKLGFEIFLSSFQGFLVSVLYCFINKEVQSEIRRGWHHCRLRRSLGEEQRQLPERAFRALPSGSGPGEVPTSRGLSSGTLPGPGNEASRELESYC
Procedure, shortened: as §1

[4] = 0% HSA, read-out: hGLP-1R, CRE Luc 0% HSA EC50
[5] = hGLP-1R, CRE Luc 1% HSA EC50, 1% HSA
[6] = 0% HSA, read-out: hGIPR, CRE Luc 0% HSA EC50
[7] = hGIPR, CRE Luc 1% HSA EC50, 1% HSA

| Compound | AUC/Dose [1] | Cmax/Dose [1] | Tmax [1] [h] | half-life [1] [h] | EC50 [2, 4] [nM] | EC50 [2, 5] [nM] | EC50 [3, 6] [nM] | EC50 [3, 7] [nM] |
| --- | --- | --- | --- | --- | --- | --- | --- | --- |
| CC[C@H](C)[C@H](NC(=O)[C@H](Cc1ccccc1)NC(=O)[C@H](CCC(=O)O)NC(=O)[C@H](CCCNC(=N)N)NC(=O)[C@H](C)NC(=O)[C@H](C)NC(=O)[C@H](CCC(N)=O)NC(=O)[C@H](CCCCNC(=O)COCCOCCNC(=O)COCCOCCNC(=O)CC[C@H](NC(=O)CCCCCCCCCCCCCCCCC(=O)O)C(=O)O)NC(=O)[C@H](CCC(=O)O)NC(=O)[C@H](CC(C)C)NC(=O)[C@H](CC(C)C)NC(=O)[C@@H](NC(=O)[C@H](CO)NC(=O)[C@H](Cc1ccc(O)cc1)NC(=O)[C@H](CC(=O)O)NC(=O)[C@H](CO)NC(=O)[C@@H](NC(=O)[C@H](Cc1ccccc1)NC(=O)[C@@H](NC(=O)CNC(=O)[C@H](CCC(=O)O)NC(=O)C(C)(C)NC(=O)[C@@H](N)Cc1ccc(O)cc1)[C@@H](C)O)[C@@H](C)O)[C@@H](C)CC)C(=O)N[C@@H](CCC(=O)O)C(=O)N[C@@H](Cc1c[nH]c2ccccc12)C(=O)N[C@@H](CC(C)C)C(=O)N[C@@H](CC(C)C)C(=O)N[C@@H](C)C(=O)NCC(=O)NCC(=O)N1CCC[C@H]1C(=O)N[C@@H](CO)C(=O)N[C@@H](CO)C(=O)NCC(=O)N[C@@H](C)C(=O)N1CCC[C@H]1C(=O)N1CCC[C@H]1C(=O)N1CCC[C@H]1C(=O)N[C@@H](CO)C(=O)O [Compound 32] (H-Y[Aib]EGTFTSDYSILLEK([AEEA-AEEA-γGlu-C18 diacid])QAAREFIEWLLAGGPSSGAPPPS-OH) | 25.3* kg * h/L | 0.45* kg/L | 1.8 | 80 | 0.005 | 0.982 | 0.0071 | 0.679 |
| CC[C@H](C)[C@H](NC(=O)[C@H](Cc1ccccc1)NC(=O)[C@H](CCC(=O)O)NC(=O)[C@H](CCCNC(=N)N)NC(=O)[C@H](C)NC(=O)[C@H](C)NC(=O)[C@H](CCC(N)=O)NC(=O)[C@H](CCC(=O)O)NC(=O)[C@H](CCC(=O)O)NC(=O)[C@H](CC(C)C)NC(=O)[C@H](CC(C)C)NC(=O)[C@H](CCCCNC(=O)[C@@H](N)CCCCNC(=O)[C@@H](N)CCCCNC(=O)CC[C@H](NC(=O)CCCCCCCCCCCCCCCCC(=O)O)C(=O)O)NC(=O)[C@H](CO)NC(=O)[C@H](Cc1ccc(O)cc1)NC(=O)[C@H](CC(=O)O)NC(=O)[C@H](CO)NC(=O)[C@@H](NC(=O)[C@H](Cc1ccccc1)NC(=O)[C@@H](NC(=O)CNC(=O)[C@H](CCC(=O)O)NC(=O)C(C)(C)NC(=O)[C@@H](N)Cc1ccc(O)cc1)[C@@H](C)O)[C@@H](C)O)C(=O)N[C@@H](CCC(=O)O)C(=O)N[C@@H](Cc1c[nH]c2ccccc12)C(=O)N[C@@H](CC(C)C)C(=O)N[C@@H](CC(C)C)C(=O)N[C@@H](C)C(=O)NCC(=O)NCC(=O)N1CCC[C@H]1C(=O)N[C@@H](CO)C(=O)N[C@@H](CO)C(=O)NCC(=O)N[C@@H](C)C(=O)N1CCC[C@H]1C(=O)N1CCC[C@H]1C(=O)N1CCC[C@H]1C(=O)N[C@@H](CO)C(=O)O [Compound 40] | 27.0 kg·h/L | 0.48 kg/L | 2 | 61 | 0.0064 | 0.334 | 0.0095 | 0.501 |
| CC[C@H](C)[C@H](NC(=O)[C@H](Cc1ccccc1)NC(=O)[C@H](CCC(=O)O)NC(=O)[C@H](CCC(N)=O)NC(=O)[C@H](C)NC(=O)[C@H](C)NC(=O)[C@H](CCC(N)=O)NC(=O)[C@H](CCCCNC(=O)[C@@H](N)CCCCNC(=O)[C@@H](N)CCCCNC(=O)CC[C@H](NC(=O)CCCCCCCCCCCCCCCCC(=O)O)C(=O)O)NC(=O)[C@H](CCC(=O)O)NC(=O)[C@H](CC(C)C)NC(=O)[C@H](CC(C)C)NC(=O)[C@@H](NC(=O)[C@H](CO)NC(=O)[C@H](Cc1ccc(O)cc1)NC(=O)[C@H](CC(=O)O)NC(=O)[C@H](CO)NC(=O)[C@@H](NC(=O)[C@H](Cc1ccccc1)NC(=O)[C@@H](NC(=O)CNC(=O)[C@H](CCC(=O)O)NC(=O)C(C)(C)NC(=O)[C@@H](N)Cc1ccc(O)cc1)[C@@H](C)O)[C@@H](C)O)[C@@H](C)CC)C(=O)N[C@@H](CC(N)=O)C(=O)N[C@@H](Cc1c[nH]c2ccccc12)C(=O)N[C@@H](CC(C)C)C(=O)N[C@@H](CC(C)C)C(=O)N[C@@H](C)C(=O)NCC(=O)NCC(=O)N1CCC[C@H]1C(=O)N[C@@H](CO)C(=O)N[C@@H](CO)C(=O)NCC(=O)N[C@@H](C)C(=O)N1CCC[C@H]1C(=O)N1CCC[C@H]1C(=O)N1CCC[C@H]1C(=O)N[C@@H](CO)C(=O)O [Compound 24] (H-Y[Aib]EGTFTSDYSILLEK([εLys-εLys-γGlu-C18 diacid])QAAQEFINWLLAGGPSSGAPPPS-OH) | 16.4 kg·h/L | 0.29 kg/L | 1.8 | 74 | 0.0121 | 0.49 | 0.0039 | 0.115 |
| CC[C@H](C)[C@H](NC(=O)[C@H](Cc1ccccc1)NC(=O)[C@H](CCC(=O)O)NC(=O)[C@H](Cc1c[nH]cn1)NC(=O)[C@H](C)NC(=O)[C@H](C)NC(=O)[C@H](CCC(N)=O)NC(=O)[C@H](CCCCNC(=O)[C@@H](N)CCCCNC(=O)[C@@H](N)CCCCNC(=O)CC[C@H](NC(=O)CCCCCCCCCCCCCCCCC(=O)O)C(=O)O)NC(=O)[C@H](CCC(=O)O)NC(=O)[C@H](CC(C)C)NC(=O)[C@H](CC(C)C)NC(=O)[C@@H](NC(=O)[C@H](CO)NC(=O)[C@H](Cc1ccc(O)cc1)NC(=O)[C@H](CC(=O)O)NC(=O)[C@H](CO)NC(=O)[C@@H](NC(=O)[C@H](Cc1ccccc1)NC(=O)[C@@H](NC(=O)CNC(=O)[C@H](CCC(=O)O)NC(=O)C(C)(C)NC(=O)[C@@H](N)Cc1ccc(O)cc1)[C@@H](C)O)[C@@H](C)O)[C@@H](C)CC)C(=O)N[C@@H](CC(N)=O)C(=O)N[C@@H](Cc1c[nH]c2ccccc12)C(=O)N[C@@H](CC(C)C)C(=O)N[C@@H](CC(C)C)C(=O)N[C@@H](C)C(=O)NCC(=O)NCC(=O)N1CCC[C@H]1C(=O)N[C@@H](CO)C(=O)N[C@@H](CO)C(=O)NCC(=O)N[C@@H](C)C(=O)N1CCC[C@H]1C(=O)N1CCC[C@H]1C(=O)N1CCC[C@H]1C(=O)N[C@@H](CO)C(=O)O [Compound 26] (H-Y[Aib]EGTFTSDYSILLEK([εLys-εLys-γGlu-C18 diacid])QAAHEFINWLLAGGPSSGAPPPS-OH) | 27.4* kg * h/L | 0.49* kg/L | 1.2 | 70 | 0.0074 | 0.595 | 0.0049 | 0.153 |

From US20220177538A1, “CO-AGONISTS AT GLP-1 AND GIP RECEPTORS SUITABLE FOR ORAL DELIVERY” (Novo Nordisk A/S, priority 2020, published 2022)
